Patent US12594276B2, “Inhibitors of human immunodeficiency virus replication” (ViiV Healthcare UK (No.5) Limited, priority 2024, dated 2026)
pEC50: −log10 of the molar value. Where two headings read alike, the source gives them in different places.

Legend:
[1] = Compound cytotoxicity, XTT-based colorimetric assay; format: cell-based; conditions: human
Procedure, shortened: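 Cells seeded as for the antiviral assay but left uninfected (MT2). Compound exposure continued to day 4. XTT reagent added and colour read. CC50 calculated.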

[2] = test system: recombinant NL4-3 virus (nef section replaced with Renilla luciferase gene) in MT-2 cells; experiment: HIV cell culture assay (antiviral activity, luciferase readout); format: cell-based; conditions: Renilla, NL43, MT-2 cells infected for 4-5 days with recombinant NL4-3 Renilla luciferase virus
Procedure, shortened: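 Antiviral EC50 derived from luciferase signal using the exponential median effect equation. Infection of MT-2 cells ran 4-5 days alongside serial dilutions of compound, with virus generated by proviral clone transfection of 293T cells.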

[3] = uninfected MT2 cells, day 4, XTT, read-out: CC50

Row | SMILES | CC50 at 4 days [1] [nM] | pEC50 [2] | CC50 at 4 days [1, 3] [nM]
1 | CS(=O)(=O)Nc1nn(CCN2[C@@H]3CC[C@H]2COC3)c2c(-n3c([C@H](Cc4cc(F)cc(F)c4)NC(=O)Cn4nc(C5CC5)c5c4C[C@@H]4C[C@H]54)nc4nc(C5CCC(F)(F)CC5)ccc4c3=O)ccc(Cl)c12 (atropisomer, axis not shown; (P)) [Example 381, N-[(1S)-1-[(3P)-3-(4-chloro-3-methanesulfonamido-1-{2-[(1R,5S)-3-oxa-8-azabicyclo[3.2.1]octan-8-yl]ethyl}-1H-indazol-7-yl)-7-(4,4-difluorocyclohexyl)-4-oxo-3H,4H-pyrido[2,3-d]pyrimidin-2-yl]-2-(3,5-difluorophenyl)ethyl]-2-[(2S,4S)-9-cyclopropyl-7,8-diazatricyclo[4.3.0.0^2,^4]nona-1(6),8-dien-7-yl]acetamide] | > 20 | 11.15 | –
2 | COCCCn1nc(NS(C)(=O)=O)c2c(Cl)ccc(-n3c([C@H](Cc4cc(F)cc(F)c4)NC(=O)Cn4nc(C(F)F)c5c4C(F)(F)[C@@H]4C[C@H]54)nc4nc(C5CCC(F)(F)CC5)cc(NCCC(C)(C)OC)c4c3=O)c21 (atropisomer, axis not shown; (P)) [Example 565, N-[(1S)-1-[(3P)-3-[4-chloro-3-methanesulfonamido-1-(3-methoxypropyl)-1H-indazol-7-yl]-7-(4,4-difluorocyclohexyl)-5-[(3-methoxy-3-methylbutyl)amino]-4-oxo-3H,4H-pyrido[2,3-d]pyrimidin-2-yl]-2-(3,5-difluorophenyl)ethyl]-2-[(2S,4R)-9-(difluoromethyl)-5,5-difluoro-7,8-diazatricyclo[4.3.0.0^2,^4]nona-1(6),8-dien-7-yl]acetamide] | – | 10.96 | > 20
3 | Cc1cc(C2CCC(F)(F)CC2)nc2nc([C@H](Cc3cc(F)cc(F)c3)NC(=O)Cn3nc(C(F)F)c4c3C(F)(F)[C@@H]3C[C@H]43)n(-c3ccc(Cl)c4c(NS(C)(=O)=O)nn(CCN5CC(C(F)F)C5)c34)c(=O)c12 (atropisomer, axis not shown; (P)) [Example 268, N-[(1S)-1-[(3P)-3-(4-chloro-1-{2-[3-(difluoromethyl)azetidin-1-yl]ethyl}-3-methanesulfonamido-1H-indazol-7-yl)-7-(4,4-difluorocyclohexyl)-5-methyl-4-oxo-3H,4H-pyrido[2,3-d]pyrimidin-2-yl]-2-(3,5-difluorophenyl)ethyl]-2-[(2S,4R)-9-(difluoromethyl)-5,5-difluoro-7,8-diazatricyclo[4.3.0.0^2,^4]nona-1(6),8-dien-7-yl]acetamide] | – | 10.82 | > 50
4 | CC1(C)CN(CCn2nc(NS(C)(=O)=O)c3c(Cl)ccc(-n4c([C@H](Cc5cc(F)cc(F)c5)NC(=O)Cn5nc(C6CC6)c6c5C[C@@H]5C[C@H]65)nc5nc(C6CCC(F)(F)CC6)ccc5c4=O)c32)CC(C)(C)O1 (atropisomer, axis not shown; (P)) [Example 424, N-[(1S)-1-[(3P)-3-{4-chloro-3-methanesulfonamido-1-[2-(2,2,6,6-tetramethylmorpholin-4-yl)ethyl]-1H-indazol-7-yl}-7-(4,4-difluorocyclohexyl)-4-oxo-3H,4H-pyrido[2,3-d]pyrimidin-2-yl]-2-(3,5-difluorophenyl)ethyl]-2-[(2S,4S)-9-cyclopropyl-7,8-diazatricyclo[4.3.0.0^2,^4]nona-1(6),8-dien-7-yl]acetamide] | – | 10.92 | > 20
5 | Cc1cc(C2CCC(F)(F)CC2)nc2nc([C@H](Cc3cc(F)cc(F)c3)NC(=O)Cn3nc(C(F)F)c4c3C(F)(F)[C@@H]3C[C@H]43)n(-c3ccc(Cl)c4c(NS(C)(=O)=O)nn(CCN5CC(F)(F)C5)c34)c(=O)c12 (atropisomer, axis not shown; (P)) [Example 229, N-[(1S)-1-[(3P)-3-{4-chloro-1-[2-(3,3-difluoroazetidin-1-yl)ethyl]-3-methanesulfonamido-1H-indazol-7-yl}-7-(4,4-difluorocyclohexyl)-5-methyl-4-oxo-3H,4H-pyrido[2,3-d]pyrimidin-2-yl]-2-(3,5-difluorophenyl)ethyl]-2-[(2S,4R)-9-(difluoromethyl)-5,5-difluoro-7,8-diazatricyclo[4.3.0.0^2,4]nona-1(6),8-dien-7-yl]acetamide] | – | 10.89 | > 50
6 | Cc1cc(C2CCC(F)(F)CC2)nc2nc([C@H](Cc3cc(F)cc(F)c3)NC(=O)Cn3nc(C4CC4)c4c3C[C@@H]3C[C@H]43)n(-c3ccc(Cl)c4c(NS(C)(=O)=O)nn(CCN5CCC(F)CC5)c34)c(=O)c12 (atropisomer, axis not shown; (P)) [Example 277, N-[(1S)-1-[(3P)-3-{4-chloro-1-[2-(4-fluoropiperidin-1-yl)ethyl]-3-methanesulfonamido-1H-indazol-7-yl}-7-(4,4-difluorocyclohexyl)-5-methyl-4-oxo-3H,4H-pyrido[2,3-d]pyrimidin-2-yl]-2-(3,5-difluorophenyl)ethyl]-2-[(2S,4S)-9-cyclopropyl-7,8-diazatricyclo[4.3.0.0^2,^4]nona-1(6),8-dien-7-yl]acetamide] | – | 11.05 | > 50
7 | COCCNc1cc(C2CCC(F)(F)CC2)nc2nc([C@H](Cc3cc(F)cc(F)c3)NC(=O)Cn3nc(C(F)F)c4c3C(F)(F)[C@@H]3C[C@H]43)n(-c3ccc(Cl)c4c(NS(C)(=O)=O)nn(CCN5C[C@@H](F)[C@@H](F)C5)c34)c(=O)c12 (atropisomer, axis not shown; (P)) [Example 417, N-[(1S)-1-[(3P)-3-(4-chloro-1-{2-[(3R,4S)-3,4-difluoropyrrolidin-1-yl]ethyl}-3-methanesulfonamido-1H-indazol-7-yl)-7-(4,4-difluorocyclohexyl)-5-[(2-methoxyethyl)amino]-4-oxo-3H,4H-pyrido[2,3-d]pyrimidin-2-yl]-2-(3,5-difluorophenyl)ethyl]-2-[(2S,4R)-9-(difluoromethyl)-5,5-difluoro-7,8-diazatricyclo[4.3.0.0^2,^4]nona-1(6),8-dien-7-yl]acetamide] | – | 11.15 | > 20
8 | COCCCn1nc(NS(C)(=O)=O)c2c(Cl)ccc(-n3c([C@H](Cc4cc(F)cc(F)c4)NC(=O)Cn4nc(C(F)F)c5c4C(F)(F)[C@@H]4C[C@H]54)nc4nc(C5CCC(F)(F)CC5)cc(NCCCN5CCCCC5)c4c3=O)c21 (atropisomer, axis not shown; (P)) [Example 519, N-[(1S)-1-[(3P)-3-[4-chloro-3-methanesulfonamido-1-(3-methoxypropyl)-1H-indazol-7-yl]-7-(4,4-difluorocyclohexyl)-4-oxo-5-{[3-(piperidin-1-yl)propyl]amino}-3H,4H-pyrido[2,3-d]pyrimidin-2-yl]-2-(3,5-difluorophenyl)ethyl]-2-[(2S,4R)-9-(difluoromethyl)-5,5-difluoro-7,8-diazatricyclo[4.3.0.0^2,^4]nona-1(6),8-dien-7-yl]acetamide] | – | 10.62 | > 20
9 | Cc1cc(C2(F)CCC(F)(F)CC2)nc2nc([C@H](Cc3cc(F)cc(F)c3)NC(=O)Cn3nc(C4CC4)c4c3C[C@@H]3C[C@H]43)n(-c3ccc(Cl)c4c(NS(C)(=O)=O)nn([C@H](C)C(=O)N5CC(C)(C)OC(C)(C)C5)c34)c(=O)c12 (relative stereo) [Example 750, N-[(1S)-1-[(3P)-3-{4-chloro-3-methanesulfonamido-1-[(2R)-1-oxo-1-(2,2,6,6-tetramethylmorpholin-4-yl)propan-2-yl]-1H-indazol-7-yl}-5-methyl-4-oxo-7-(1,4,4-trifluorocyclohexyl)-3H,4H-pyrido[2,3-d]pyrimidin-2-yl]-2-(3,5-difluorophenyl)ethyl]-2-[(2R*,4R*)-9-cyclopropyl-7,8-diazatricyclo[4.3.0.0^2,^4]nona-1(6),8-dien-7-yl]acetamide] | – | 10.55 | > 20
10 | C[C@H](Cn1nc(NS(C)(=O)=O)c2c(Cl)ccc(-n3c([C@H](Cc4cc(F)cc(F)c4)NC(=O)Cn4nc(C(F)F)c5c4C(F)(F)[C@@H]4C[C@H]54)nc4nc(C5CCC(F)(F)CC5)cc(C5CC5)c4c3=O)c21)N1C[C@H](F)C[C@H](F)C1 (atropisomer, axis not shown; (P)) [Example 684, N-[(1S)-1-[(3P)-3-{4-chloro-1-[(2R)-2-[(3R,5S)-3,5-difluoropiperidin-1-yl]propyl]-3-methanesulfonamido-1H-indazol-7-yl}-5-cyclopropyl-7-(4,4-difluorocyclohexyl)-4-oxo-3H,4H-pyrido[2,3-d]pyrimidin-2-yl]-2-(3,5-difluorophenyl)ethyl]-2-[(2S,4R)-9-(difluoromethyl)-5,5-difluoro-7,8-diazatricyclo[4.3.0.0^2,^4]nona-1(6),8-dien-7-yl]acetamide] | – | 10.85 | > 20
11 | COCCCn1nc(NS(C)(=O)=O)c2c(Cl)ccc(-n3c([C@H](Cc4cc(F)cc(F)c4)NC(=O)Cn4nc(C(F)F)c5c4C(F)(F)[C@@H]4C[C@H]54)nc4nc(C5CCC(F)(F)CC5)cc(C5CC5)c4c3=O)c21 (atropisomer, axis not shown; (P)) [Example 375, N-[(1S)-1-[(3P)-3-[4-chloro-3-methanesulfonamido-1-(3-methoxypropyl)-1H-indazol-7-yl]-5-cyclopropyl-7-(4,4-difluorocyclohexyl)-4-oxo-3H,4H-pyrido[2,3-d]pyrimidin-2-yl]-2-(3,5-difluorophenyl)ethyl]-2-[(2S,4R)-9-(difluoromethyl)-5,5-difluoro-7,8-diazatricyclo[4.3.0.0^2,^4]nona-1(6),8-dien-7-yl]acetamide] | – | 10.85 | > 20
